IC50 data for nine compounds are collected here from patent publication US20240148821A1, “PHARMACEUTICAL USE OF CYCLIC PEPTIDE COMPOUND” (CHUGAI SEIYAKU KABUSHIKI KAISHA, priority 2021, published 2024).

Numbered stars: 1 amine (or outer) side, 2 acyl side, 3 side chain; on linkers, the order of the positions; unused ones are H or OH. Bridge positions count the residues as written; N and C are the ends. Square brackets hold non-standard residues; d marks the D form. Peptide text beside a SMILES is read from it. * marks the point of attachment. hPhe(3-Cl-4-CF3) = N[C@@H](CCc1ccc(C(F)(F)F)c(Cl)c1)C(=O)O; hPhe(3-F,4-CF3) = N[C@@H](CCc1ccc(C(F)(F)F)c(F)c1)C(=O)O; NMePhe(4-CF3) = CN[C@@H](Cc1ccc(C(F)(F)F)cc1)C(=O)O; NMeAbu(4,4,4-F3) = CN[C@@H](CC(F)(F)F)C(=O)O; NMedβ3hAla = C[C@H](CC(=O)[*:2])N(C)[*:1]; Phe(3-I) = N[C@@H](Cc1cccc(I)c1)C(=O)O; Pro(4,4-F2) = O=C(O)[C@@H]1CC(F)(F)CN1; NMeCha = CN[C@@H](CC1CCCCC1)C(=O)O; Pro(4-oxo) = O=C1CN[C@H](C(=O)O)C1; NMeChg = CN[C@H](C(=O)O)C1CCCCC1; NMeD = CN[C@@H](CC(=O)O)C(=O)O; NMeL = CN[C@@H](CC(C)C)C(=O)O; hLeu = CC(C)CC[C@H](N)C(=O)O; NMeNva = CCC[C@H](NC)C(=O)O; NMeV = CN[C@H](C(=O)O)C(C)C; NMeAbu = CC[C@H](NC)C(=O)O; NMeS = CN[C@@H](CO)C(=O)O; NMeA = CN[C@@H](C)C(=O)O; NMeAib = CNC(C)(C)C(=O)O; Nle = CCCC[C@H](N)C(=O)O; Piperidide = C1CCN(*)CC1; Pyrrolidide = C1CCN(*)C1; Ac5c = NC1(C(=O)O)CCCC1; Aze = O=C(O)[C@@H]1CCN1; Sar = CNCC(=O)O

In the test the test system is Human pancreatic cancer cell line AsPC-1 (G12D mutation Kras). The experiment in a line: AsPC-1 cell growth inhibition (AsPC-1 CGI). The format is cell-based. To be noted: read-out: AsPC-1 cell growth inhibition, 50% growth inhibitory concentration (IC50 value); 96 hours, CellTiter-Glo, values classified in ranges. (In general: ATP-based viability assays read luminescence as a measure of living cells.)
Method: Test compounds were serially dilated with dimethyl sulfoxide, and 200 nL was then dispensed to a U-bottom 96-well plate using Labcyte Echo. […] The cell suspension was dispensed to a. plate containing a test compound at 100 μL per well and incubated at 37° C. in a 5% carbon dioxide gas incubator. 96 hours later, 80 μL of CellTiter-Glo (Promega) was added to each well and fluorescence was measured.
`CC[C@H](C)[C@@H]1NC(=O)[C@H](CC(C)C)N(C)C(=O)C[C@@H](C)N(C)C(=O)[C@H](CC(C)C)NC(=O)C(C)(C)N(C)C(=O)[C@H](CC(C)C)NC(=O)[C@H](CCc2ccc(C(F)(F)F)c(Cl)c2)NC(=O)CN(C)C(=O)[C@H](CC2CCCCC2)N(C)C(=O)[C@@H]2CCN2C(=O)CN(C)C1=O` [Compound 57] (cyclo([Aze][NMeCha][Sar][hPhe(3-Cl-4-CF3)]L[NMeAib]L[NMedβ3hAla][NMeL]I[Sar])): the IC50 is above 500 nM. Next, `CC[C@H](C)[C@@H]1NC(=O)[C@H](CC(C)C)N(C)C(=O)C[C@@H](C(=O)N2CCCCC2)N(C)C(=O)[C@H](CC)N(C)C(=O)C2(CCCC2)NC(=O)[C@@H]2CCCN2C(=O)[C@H](CCc2ccc(C(F)(F)F)c(Cl)c2)NC(=O)CN(C)C(=O)[C@H](CC2CCCCC2)N(C)C(=O)CN(C)C(=O)CN(C)C1=O` [Compound 1741] ([NMeL]I[Sar][Sar][NMeCha][Sar][hPhe(3-Cl-4-CF3)]P[Ac5c][NMeAbu][NMeD]-Piperidide; lactam N-11): above 500 nM. The value for `CCCC[C@@H]1NC(=O)[C@H](Cc2cccc(I)c2)NC(=O)CN(C)C(=O)[C@H](Cc2ccc(C(F)(F)F)cc2)N(C)C(=O)CN(C)C(=O)CN(C)C(=O)[C@H]([C@@H](C)CC)NC(=O)[C@H](CC(C)C)N(C)C(=O)C[C@@H](C(=O)N2CCCCC2)N(C)C(=O)[C@H](CCC(C)C)NC(=O)C(C)(C)N(C)C1=O` [Compound 1433] ([NMeL]I[Sar][Sar][NMePhe(4-CF3)][Sar][Phe(3-I)][Nle][NMeAib][hLeu][NMeD]-Piperidide; lactam N-11) was above 500 nM. The value for `CC[C@H](C)[C@@H]1NC(=O)[C@H](CC(C)C)N(C)C(=O)C[C@@H](C(=O)N2CCCCC2)N(C)C(=O)[C@H](COC)N(C)C(=O)C2(CCCC2)NC(=O)[C@@H]2CCCN2C(=O)[C@H](CCc2ccc(C(F)(F)F)c(Cl)c2)NC(=O)CN(C)C(=O)[C@H](CC2CCCCC2)N(C)C(=O)CN(C)C(=O)CN(C)C1=O` [Compound 850] ([NMeL]I[Sar][Sar][NMeCha][Sar][hPhe(3-Cl-4-CF3)]P[Ac5c][NMeS](Me)[NMeD]-Piperidide; lactam N-11) was above 500 nM; that for `CC[C@H](C)[C@@H]1NC(=O)[C@H](CC(C)C)N(C)C(=O)C[C@@H](C(=O)N2CCCCC2)N(C)C(=O)[C@H](C(C)C)N(C)C(=O)C2(CCCC2)NC(=O)[C@@H]2CC(=O)CN2C(=O)[C@H](CCc2ccc(C(F)(F)F)c(Cl)c2)NC(=O)CN(C)C(=O)[C@H](CC2CCCCC2)N(C)C(=O)[C@@H]2CCN2C(=O)[C@H](C)N(C)C1=O` [Compound 1819] ([NMeL]I[NMeA][Aze][NMeCha][Sar][hPhe(3-Cl-4-CF3)][Pro(4-oxo)][Ac5c][NMeV][NMeD]-Piperidide; lactam N-11) was above 500 nM; that for `CC[C@H](C)[C@@H]1NC(=O)[C@H](CC(C)C)N(C)C(=O)C[C@@H](C(=O)N2CCCCC2)NC(=O)[C@H](CC(C)C)N(C)C(=O)C2(CCCC2)NC(=O)[C@@H]2CCCN2C(=O)[C@H](CCc2ccc(C(F)(F)F)c(F)c2)NC(=O)CN(C)C(=O)[C@H](CC2CCCCC2)N(C)C(=O)CN(C)C(=O)CN(C)C1=O` [Compound 298] ([NMeL]I[Sar][Sar][NMeCha][Sar][hPhe(3-F,4-CF3)]P[Ac5c][NMeL]D-Piperidide; lactam N-11) was above 500 nM. For the compound `CCC[C@H]1C(=O)NC2(CCCC2)C(=O)N(C)[C@@H](C2CCCCC2)C(=O)N(C)[C@H](C(=O)N2CCCCC2)CC(=O)N(C)[C@@H](CC(C)C)C(=O)N[C@@H]([C@@H](C)CC)C(=O)N(C)CC(=O)N2CCC[C@H]2C(=O)N(C)[C@@H](CC2CCCCC2)C(=O)N(C)CC(=O)N[C@@H](CCc2ccc(C(F)(F)F)c(Cl)c2)C(=O)N1C` [Compound 392] ([NMeL]I[Sar]P[NMeCha][Sar][hPhe(3-Cl-4-CF3)][NMeNva][Ac5c][NMeChg][NMeD]-Piperidide; lactam N-11), the IC50 was above 500 nM. Regarding `CC[C@H](C)[C@@H]1NC(=O)[C@H](CC(C)C)N(C)C(=O)C[C@@H](C(=O)N2CCCCC2)NC(=O)[C@H](C(C)C)N(C)C(=O)C2(CCCC2)NC(=O)[C@@H]2CCCN2C(=O)[C@H](CCc2ccc(C(F)(F)F)c(Cl)c2)NC(=O)CN(C)C(=O)[C@H](CC2CCCCC2)N(C)C(=O)CN(C)C(=O)CN(C)C1=O` [Compound 417] ([NMeL]I[Sar][Sar][NMeCha][Sar][hPhe(3-Cl-4-CF3)]P[Ac5c][NMeV]D-Piperidide; lactam N-11), the IC50 is above 500 nM. Take `CC[C@H](C)[C@@H]1NC(=O)[C@H](CC(F)(F)F)N(C)C(=O)C[C@@H](C(=O)N2CCCC2)N(C)C(=O)[C@H](C2CCCCC2)N(C)C(=O)C2(CCCC2)NC(=O)[C@@H]2CC(F)(F)CN2C(=O)[C@H](CCc2ccc(C(F)(F)F)c(Cl)c2)NC(=O)CN(C)C(=O)[C@H](Cc2ccc(C(F)(F)F)cc2)N(C)C(=O)CN(C)C(=O)CN(C)C1=O` [Compound 1196] ([NMeAbu(4,4,4-F3)]I[Sar][Sar][NMePhe(4-CF3)][Sar][hPhe(3-Cl-4-CF3)][Pro(4,4-F2)][Ac5c][NMeChg][NMeD]-Pyrrolidide; lactam N-11): the IC50 was at most 20 nM.
